Reference: paper PMC6429309 (Molecules, 2019)
≈ marks a conversion by molar mass, not a printed value. Where “and” joins values, the source holds several entries; their conditions need not be identical. Equal entries are not always repeated.

Legend:
[1] = tested on: Xanthomonas oryzae pv. oryzae (Xoo); assay: microbe, parasite or virus in culture; type: cell-based; details: for Antibacterial activity (inhibition rate) against Xoo / EC50 against Xoo: in vitro; for Antibacterial activity (inhibition rate) against Xoo: strain PXO99A, average of three replicates; for EC50 against Xoo: five concentrations 100-6.25 μg/mL; for inhibition at 50 µg/mL / inhibition at 100 µg/mL / EC50: Xanthomonas oryzae; for inhibition at 50 µg/mL / inhibition at 100 µg/mL: read-out: Antibacterial activity (inhibition rate) against Xoo; for EC50: read-out: EC50 against Xoo
[2] = tested on: Xanthomonas axonopodis pv. citri (Xac); assay: microbe, parasite or virus in culture; type: cell-based; details: for inhibition at 50 µg/mL / inhibition at 100 µg/mL / EC50: Xanthomonas axonopodis; for inhibition at 50 µg/mL / inhibition at 100 µg/mL: read-out: Antibacterial activity (inhibition rate) against Xac; for EC50: read-out: EC50 against Xac

Row | SMILES | Antibacterial activity (inhibition rate) against Xoo ([1]; 50 μg/mL) | Antibacterial activity (inhibition rate) against Xoo ([1]; 100 μg/mL) | EC50 against Xoo [1] | EC50 against Xac [2] | inhibition at 50 µg/mL [1] | inhibition at 100 µg/mL [1] | inhibition at 50 µg/mL [2] | inhibition at 100 µg/mL [2] | EC50 [1] | EC50 [2] | Antibacterial activity (inhibition rate) against Xac [2]
1 | Nc1nnc([S-])s1.Nc1nnc([S-])s1.[Cu+2] [Thiodiazole-copper, thiodiazole-copper, reference compound] | 37.2 ± 3.2% | 50.2 ± 0.9% | 78.7 mg/L | 87.9 mg/L |  |  |  |  |  |  | 
2 | COP(=O)(OC)Oc1ccccc1/C=C/C(=O)/C=C/c1ccc([N+](=O)[O-])cc1 [3i] |  |  |  |  | 43.9% | 56.6 ± 1.3% | 50.8 ± 4.2% | 50.9 ± 4.5% |  |  | 
3 | CCOP(=O)(OCC)Oc1ccccc1/C=C/C(=O)/C=C/c1cccc(C)c1 [3s] |  |  |  |  | 12.5 ± 6% | 29.5 ± 4.8% | 8.5 ± 3.8% | 27.4 ± 1.7% |  |  | 
4 | CCOP(=O)(OCC)Oc1ccccc1/C=C/C(=O)/C=C/c1cccc(C(F)(F)F)c1 [3q] |  |  |  |  | 20.3 ± 3.1% | 31.5 ± 2.1% | 5.4 ± 2.6% | 25.4 ± 0.5% |  |  | 
5 | CCOP(=O)(OCC)Oc1ccccc1/C=C/C(=O)/C=C/c1ccc(OC)cc1 [3d] |  |  |  |  | 32.6 ± 2.2% | 35.7 ± 1.1% | 34.9 ± 1.5% | 46.4 ± 1.1% |  |  | 
6 | COP(=O)(OC)Oc1ccccc1/C=C/C(=O)/C=C/c1ccc(Cl)cc1 [3a, 2-((1E,4E)-5-(4-chlorophenyl)-3-oxopenta-1,4-dien-1-yl)phenyl dimethyl phosphate] |  |  |  |  | 83.9 ± 2.1% | 85 ± 2.1% | 50.6 ± 4.6% | 59.7 ± 1.8% | 35.8 mg/L | 45 mg/L | 
7 | CCOP(=O)(OCC)Oc1ccccc1/C=C/C(=O)/C=C/c1cccc([N+](=O)[O-])c1 [3h] |  |  |  |  | 78.1 ± 1.4% | 86.5 ± 1.9% | 48.5 ± 4.2% | 54.8 ± 3.8% | 19.1 mg/L (≈ 44.3 µM) |  | 
8 | CCOP(=O)(OCC)Oc1ccccc1/C=C/C(=O)/C=C/c1ccccc1 [3m] |  |  |  |  | 2.5 ± 5.7% | 28.7 ± 9.1% | 18 ± 2.9% | 27.4 ± 0.6% |  |  | 
9 | CCOP(=O)(OCC)Oc1ccccc1/C=C/C(=O)/C=C/c1ccc(Cl)cc1 [3b] |  |  |  |  | 35 ± 4.4% | 37 ± 2.9% | 53 ± 3.6% | 53.1 ± 3.2% |  | 34.1 mg/L (≈ 81 µM) | 
10 | CCOP(=O)(OCC)Oc1ccccc1/C=C/C(=O)/C=C/c1ccc(Br)cc1 [3o] |  |  |  |  | 19.9 ± 3.7% | 31.4 ± 2.2% | 23 ± 2.7% | 28.4 ± 3.4% |  |  | 
11 | COP(=O)(OC)Oc1ccccc1/C=C/C(=O)/C=C/c1ccccc1Cl [3e] |  |  |  |  | 65.3 ± 1.9% | 69.4 ± 0.6% | 67.9 ± 4.3% | 77.6 ± 2.8% | 46 mg/L (≈ 117 µM) | 22.9 mg/L (≈ 58.3 µM) | 
12 | COP(=O)(OC)Oc1ccccc1/C=C/C(=O)/C=C/c1cccc(C(F)(F)F)c1 [3p] |  |  |  |  | 21.8 ± 1.5% | 25 ± 3.1% | 11.5 ± 1.8% | 20.2 ± 0.8% |  |  | 
13 | COc1ccc(/C=C/C(=O)/C=C/c2ccccc2OP(=O)(OC)OC)cc1 [3c] |  |  |  |  | 23.4 ± 0.9% | 25.5 ± 0.9% | 53.5 ± 2.5% | 57.5 ± 2.1% |  |  | 
14 | CCOP(=O)(OCC)Oc1ccccc1/C=C/C(=O)/C=C/c1ccc([N+](=O)[O-])cc1 [3j] |  |  |  |  | 81.4 ± 0.9% | 85.5 ± 0.8% | 52.9 ± 5.4% | 61.9 ± 1.1% | 17.7 mg/L (≈ 41 µM) |  | 
15 | COP(=O)(OC)Oc1ccccc1/C=C/C(=O)/C=C/c1cccc(C)c1 [3r] |  |  |  |  | 21 ± 2.2% | 42.4 ± 1.4% | 10.3 ± 2.5% | 20.5 ± 1.2% |  |  | 
16 | CCOP(=O)(OCC)Oc1ccccc1/C=C/C(=O)/C=C/c1ccccc1Cl [3f] |  |  |  |  | 35.7 ± 3.4% | 36.4 ± 3.1% | 52.9 ± 2.1% | 53.1 ± 2.1% |  |  | 
17 | S=c1[nH]nc(NCNc2n[nH]c(=S)s2)s1 [Bismerthiazol, bismerthiazol, reference compound] | 45.2 ± 2.0% | 64.9 ± 3.9% | 58.8 mg/L (≈ 211 µM) | 44.5 mg/L (≈ 160 µM) |  |  |  |  |  |  | 70.3±2.8% and 54.9 ± 5.5%
18 | CCOP(=O)(OCC)Oc1ccccc1/C=C/C(=O)/C=C/c1ccc(C)cc1 [3k] |  |  |  |  | 39.4 ± 0.4% | 41.5 ± 0.6% | 47.7 ± 3.1% | 52.6 ± 2.9% |  |  | 
19 | COP(=O)(OC)Oc1ccccc1/C=C/C(=O)/C=C/c1ccccc1 [3l] |  |  |  |  | 16.7 ± 5.3% | 35.9 ± 2.9% | 29.2 ± 4.3% | 49.4 ± 8% |  |  | 
20 | COP(=O)(OC)Oc1ccccc1/C=C/C(=O)/C=C/c1ccc(Br)cc1 [3n] |  |  |  |  | 18.8 ± 1.1% | 23.8 ± 5.3% | 2.5 ± 0.9% | 16.1 ± 3.8% |  |  | 
